This is an account of results in US6949679B1, “Polyamine transport inhibitors” (Universite Laval, priority 1998, dated 2005).

The test system of data set [1] is polyamine transporter. Put plainly: Inhibition of [3H]spermidine uptake in CHO-K1 cells. In kind it is cell-based, Chinese hamster. Conditions: [3H]spermidine as substrate. As to the method: To 1 ml of an extemporaneously prepared, DTT-free solution of MESC (20 mM in […]) were added 50 μl of 50 mM Tris-HCl (pH 7.0) and 105 μl of a 40 mM solution of either iodoacetamide, LY iodoacetamide or ASIB in a light-protected microcentrifuge tube, and the mixture was incubated for 2 hours at 37° C. […] Excess iodoacetamide was then inactivated by adding DTT to a final concentration of 40 mM and incubating the solution for 2 hours at 37° C. […] The effect of the respective DTT-inactivated iodoacetamide on spermidine transport was determined in parallel by incubating cells with the same reaction mixture from which MESC was omitted. […] J. Biol. […] Cells were then lysed with 200-μl aliquot of 1 N NaOH and incubated for 30 minutes at 60° C. After neutralization with 200 μl of 1 N HCl, radioactivity was determined from a 250-μl of the cell lysate by scintillation counting. Uptake activity was expressed per amount of total cellular protein as determined by the method of Bradford (Bradford, M. M. 1976. Anal. Biochem. 72: 248-254). […] K[…] Ki and Vmax values were then estimated by Lineweaver-Burke analysis. For competitive inhibitors, Ki values were also estimated by measuring uptake activity in the presence of logarithmically increasing concentrations of antagonist, and using the Cheng-Prusoff equation (Cheng, Y.-C. and Prusoff, W. H. 1973. Biochem. Pharmacol. 22: 3099-3108) by iterative curve fitting for a sigmoidal curve. For mixed competitive/noncompetitive inhibition, two methods were used to calculate kinetic constants. […] C. 1976. Enzymes, 3rd Ed., Academic Press, San Diego, Calif.). […] C. 1976. Enzymes, 3rd Ed., Academic Press, San Diego, Calif.). Intracellular Accumulation

Data set [2] concerns polyamine transporter. Nature of the data set: Inhibition of [14C]spermine uptake in ZR-75-1 cells. In kind it is cell-based, human. Here is the method:
The rate of putrescine and spermidine transport was determined in ZR-75-1 cells incubated in serum-free RPMI 1640 medium as described (Lessard, M., Zhao, C., Singh, S. M. and Poulin, R. 1995. J. Biol. Chem. 270: 1685-1694), using [^3H]putrescine (30 Ci/mol) and [^3H]spermidine (20 Ci/mol), respectively as substrates for a 20 minute-assay period. […] Uptake activity was expressed per amount of DNA as fluorometrically determined using 3,4-diaminobenzoic acid (Simard, J., Dauvois, S., Haagensen, D. E., Lėvesque, C., Mėrand, Y. and Labrie, F. 1990. Endocrinology, 126: 3223-3231). For the determination of spermidine uptake activity in CHO-K1 cells, 80% confluent cell monolayers were rinsed twice with PBS and incubated for 20 minutes at 37° C. in 400 μl of buffer A (20 mM Tris-HCl, pH 7.4; 0.42 mM CaCl2; 0.41 mM MgSO4; 103 mM NaCl; 5.7 mM KCl; 1.1 mM D-glucose) containing 5 μM [^3H]spermidine (20 Ci/mol). Cell cultures were then washed twice with 1 ml PBS containing 5.7 mM sym-norspermidine. Cells were then lysed with 200-μl aliquot of 1 N NaOH and incubated for 30 minutes at 60° C. After neutralization with 200 μl of 1 N HCl, radioactivity was determined from a 250-μl of the cell lysate by scintillation counting. Uptake activity was expressed per amount of total cellular protein as determined by the method of Bradford (Bradford, M. M. 1976. Anal. Biochem. 72: 248-254). Non-specific binding of radioactive substrate was similarly determined in parallel for both cell lines after a 15 second-incubation with 400 μl of ice-cold uptake solution.
Kinetic analysis of polyamine transport was performed by determining uptake activity in the presence of a 3 μM [^3H]putrescine or 1 μM [^3H]spermidine plus increasing concentrations of nonradioactive substrate. K[…] Ki and Vmax values were then estimated by Lineweaver-Burke analysis. For competitive inhibitors, Ki values were also estimated by measuring uptake activity in the presence of logarithmically increasing concentrations of antagonist, and using the Cheng-Prusoff equation (Cheng, Y.-C. and Prusoff, W. H. 1973. Biochem. Pharmacol. 22: 3099-3108) by iterative curve fitting for a sigmoidal curve. For mixed competitive/noncompetitive inhibition, two methods were used to calculate kinetic constants. First, the equation [drawing 2] where v, s, and i are the transport velocity, substrate concentration and inhibitor concentration respectively, was used to calculate the inhibition constants for inhibitor/carrier complex formation (Ki) and carrier/inhibitor/substrate complex formation (Ki′) (Dixon, M. and Webb, E. C. 1976. Enzymes, 3rd Ed., Academic Press, San Diego, Calif.). Alternatively, the value of Ki for a mixed competitor/non-competitor was estimated from the intersect of equations v^−1 vs i at two different substrate concentrations (Dixon, M. and Webb, E. C. 1976. Enzymes, 3rd Ed., Academic Press, San Diego, Calif.). Intracellular Accumulation
In order to evaluate the effectiveness of dimeric triamines as polyamine transport inhibitors, we synthesized N,N′-bis(3-aminopropyl),N,N′-bis(4-aminobutyl)cystamine or BABAC (structure 1, FIG. 25; FIG. 31), and its thiol form N-(3-aminopropyl),N-(4-aminobutyl)cysteamine or AAC (FIG. 31) according to Scheme 4 described above (FIG. 30), using spermidine as a precursor polyamine. The ability of BABAC and AAC to inhibit the intracellular uptake of radio-labeled putrescine and spermidine in the ZR-75-1 human breast cancer cell line was then determined according to standard published procedures (Lessard, et al. and Poulin, et al.) Briefly, ZR-75-1 cells were grown for four days in twenty-four well plates in RPMI 1640 medium supplemented with 10% fetal bovine serum.

The conditions of data set [3]: MESC: amino group neighboring the amide linkage; cited from earlier work.
[4] abbreviates: this work, read-out: Km or Ki, spermine transport.

As for `NCCCNCCCC(NCCCN)C(=O)NCCSSCCNC(=O)C(CCCNCCCN)NCCCN` (stereo not shown) [DESC, 2,2′-dithiobis(N-ethyl-spermine-5-carboxamide)], the Ki is 0.92 ± 0.15 µM in the data set on polyamine transporter [1]; 7.5 µM in the data set on polyamine transporter [2] (FIG. 32, read-out: Apparent Ki, spermine uptake); 5 ± 0.7 µM in the data set with polyamine transporter [2] (setting [4]).
As to `NCCCNCCCC(NCCCN)C(=O)NCCS` (stereo not shown) [MESC, N-(2-mercaptoethyl)spermine-5-carboxamide], the “pKa of secondary amino group of the spermine head” value in data set [3] is on record as 5.5. The Ki in the data set with polyamine transporter [1] turned out to be 33.6 ± 7.2 µM; in the data set with polyamine transporter [2] (setting [4]), 80 ± 31 µM. The “Ki for [14C]spermine transport, fold higher than that of DESC” value in the data set on polyamine transporter [2] (FIG. 2) is listed as around 16 fold.
